ChEMBL document CHEMBL4483862, “Open-source discovery of chemical leads for next-generation chemoprotective antimalarials” (2018)
pIC50: −log10 of the molar value.

Test system: Plasmodium berghei
Assay: Luciferase/luciferin-expressing antifolate-resistant parasites were used to infect a culture of HepG2 cells that were pre-incubated with compounds. Infected hepatocytes emit light due to the luciferase reaction. Assay results are presented as the percent inhibition of light emission compared to control. […]
Type: functional
Conditions: sporozoite; for IC90: read-out: LUCIFERASE INFECTION ASSAY - IC90

Compound	IC90 [µM]	also measured
Oc1cccc2c(NC(S)=Nc3ccc(SC(F)F)cc3)cccc12	7.7	pIC50 (FFLUC_HILL_SLOPE 69.3, FFLUC_R_SQUARED 0.272, PBLUC_HILL_SLOPE 39, PBLUC_R_SQUARED 0.0559, read-out: LUCIFERASE INFECTION ASSAY - IC50): 5.14
CC(=O)Nc1cccc(-c2ccnc3c2CC(C(=O)NCc2cccs2)O3)c1 (stereo not given)	3.24	pIC50 (FFLUC_HILL_SLOPE 58.8, FFLUC_R_SQUARED 0.264, HEPG2TOX_HILL_SLOPE 13.5, HEPG2TOX_R_SQUARED 0.74, PBLUC_HILL_SLOPE 13.2, PBLUC_R_SQUARED 0.157, read-out: LUCIFERASE INFECTION ASSAY - IC50): 5.56
Cc1cc(O)c(C(=O)/C=C/c2cccc(C(F)(F)F)c2)c(=O)o1	> 10	pIC50 (FFLUC_HILL_SLOPE 56.9, FFLUC_R_SQUARED 0.7, read-out: LUCIFERASE INFECTION ASSAY - IC50): < 5.00
N#C/C(=N\Nc1cc(C(F)(F)F)cc(C(F)(F)F)c1)S(=O)(=O)c1cccs1	2	pIC50 (FFLUC_HILL_SLOPE 43.6, FFLUC_R_SQUARED 0.536, HEPG2TOX_HILL_SLOPE 2.45, HEPG2TOX_R_SQUARED 0.984, PBLUC_HILL_SLOPE 3.51, PBLUC_R_SQUARED 0.744, read-out: LUCIFERASE INFECTION ASSAY - IC50): 5.97
CC(C)n1c(Sc2ncc([N+](=O)[O-])s2)nc2cc(Cl)ccc21	8.83	pIC50 (FFLUC_HILL_SLOPE 44.5, FFLUC_R_SQUARED 0.755, HEPG2TOX_HILL_SLOPE 8.37, HEPG2TOX_R_SQUARED 0.175, PBLUC_HILL_SLOPE 4.42, PBLUC_R_SQUARED 0.266, read-out: LUCIFERASE INFECTION ASSAY - IC50): 5.27
CC(=O)Nc1ccc(OC(=O)c2cc(C(C)(C)C)nn2Cc2c(C)cc(C)cc2C)cc1	3.69	pIC50 (FFLUC_HILL_SLOPE 42.8, FFLUC_R_SQUARED 0.589, PBLUC_HILL_SLOPE 8.27, PBLUC_R_SQUARED 0.64, read-out: LUCIFERASE INFECTION ASSAY - IC50): 5.55
Cc1[nH]c2ccccc2c1C(=O)/C(C#N)=C/c1ccc(-c2ccc(S(=O)(=O)N3CCOCC3)cc2)o1	> 10	pIC50 (FFLUC_HILL_SLOPE 49.5, FFLUC_R_SQUARED 0.839, HEPG2TOX_HILL_SLOPE 4, HEPG2TOX_R_SQUARED 0.152, PBLUC_HILL_SLOPE 1.9, PBLUC_R_SQUARED 0.247, read-out: LUCIFERASE INFECTION ASSAY - IC50): 5.29
CC(C)(C)c1ccc(C(=N)SC(C(=O)C(F)(F)F)c2ccccc2)cc1 (stereo not given)	2.03	pIC50 (FFLUC_HILL_SLOPE 64.5, FFLUC_R_SQUARED 0.585, PBLUC_HILL_SLOPE 1.09, PBLUC_R_SQUARED 0.88, read-out: LUCIFERASE INFECTION ASSAY - IC50): 6.57
COc1ccc2c(-c3ccccc3)cc(SC(c3ccccc3)c3ccccc3)nc2c1	> 10	pIC50 (FFLUC_HILL_SLOPE 74, FFLUC_R_SQUARED 0.292, read-out: LUCIFERASE INFECTION ASSAY - IC50): < 5.00
Cc1cc(C)c(Nc2nc(-c3c(-c4ccccc4)noc3C)cs2)c(C)c1	5.3	pIC50 (FFLUC_HILL_SLOPE 43.6, FFLUC_R_SQUARED 0.276, HEPG2TOX_HILL_SLOPE 3.1, HEPG2TOX_R_SQUARED 0.635, PBLUC_HILL_SLOPE 7.7, PBLUC_R_SQUARED 0.763, read-out: LUCIFERASE INFECTION ASSAY - IC50): 5.40
N#Cc1ccc(/C=N/n2c(-c3ccc(F)cc3)cs/c2=N\c2cccnc2)cc1	> 10	pIC50 (FFLUC_HILL_SLOPE 41.3, FFLUC_R_SQUARED 0.462, HEPG2TOX_HILL_SLOPE 8.97, HEPG2TOX_R_SQUARED 0.901, PBLUC_HILL_SLOPE 3.58, PBLUC_R_SQUARED 0.653, read-out: LUCIFERASE INFECTION ASSAY - IC50): 5.24
Cc1cc(C(=O)N/N=C/c2ccc([N+](=O)[O-])s2)nn1-c1c(Cl)cc(Cl)cc1Cl	4.83	pIC50 (FFLUC_HILL_SLOPE 59.9, FFLUC_R_SQUARED 0.709, PBLUC_HILL_SLOPE 2.3, PBLUC_R_SQUARED 0.454, read-out: LUCIFERASE INFECTION ASSAY - IC50): 5.73
CC1CC(=O)C2C(=Nc3ccccc3SC2c2ccc(F)cc2)C1 (stereo not given)	> 9.72	pIC50 (FFLUC_HILL_SLOPE 40.6, FFLUC_R_SQUARED 0.352, PBLUC_HILL_SLOPE 4.94, PBLUC_R_SQUARED 0.608, read-out: LUCIFERASE INFECTION ASSAY - IC50): 5.15
CCCCNC(=O)c1c(NC(=O)c2ccccc2)nc2ccc(C)cn12	6.8	pIC50 (FFLUC_HILL_SLOPE 60.4, FFLUC_R_SQUARED 0.28, HEPG2TOX_HILL_SLOPE 6.52, HEPG2TOX_R_SQUARED 0.955, PBLUC_HILL_SLOPE 4.31, PBLUC_R_SQUARED 0.763, read-out: LUCIFERASE INFECTION ASSAY - IC50): 5.39
Nc1c(C(=O)c2ccc(Cl)cc2)sc2nc3c(c(-c4cccs4)c12)CCCC3	> 7.77	pIC50 (FFLUC_HILL_SLOPE 44.8, FFLUC_R_SQUARED 0.458, PBLUC_HILL_SLOPE 1.88, PBLUC_R_SQUARED 0.367, read-out: LUCIFERASE INFECTION ASSAY - IC50): 5.30
O=C(Nc1nc(-c2ccc(Cl)cc2Cl)cs1)C1CC(=O)N(CCc2ccccc2)C1 (stereo not given)	> 10	pIC50 (FFLUC_HILL_SLOPE 45.5, FFLUC_R_SQUARED 0.597, PBLUC_HILL_SLOPE 12.9, PBLUC_R_SQUARED 0.652, read-out: LUCIFERASE INFECTION ASSAY - IC50): 5.04
CCCNC(=O)c1c(NC(=O)c2cc(F)cc(F)c2)nc2ccccn12	2.45	pIC50 (FFLUC_HILL_SLOPE 41.4, FFLUC_R_SQUARED 0.343, HEPG2TOX_HILL_SLOPE 1.12, HEPG2TOX_R_SQUARED 0.682, PBLUC_HILL_SLOPE 5.41, PBLUC_R_SQUARED 0.415, read-out: LUCIFERASE INFECTION ASSAY - IC50): 5.79
COc1cccc(-c2nc3ccc(NC(=O)Nc4ccc(OC(F)(F)F)cc4)cn3n2)c1	> 10	pIC50 (FFLUC_HILL_SLOPE 45.6, FFLUC_R_SQUARED 0.742, read-out: LUCIFERASE INFECTION ASSAY - IC50): < 5.00
O=C(Nc1cccc(C(F)(F)F)c1)Nc1ccc2nc(-c3ccco3)nn2c1	> 10	pIC50 (FFLUC_HILL_SLOPE 40.8, FFLUC_R_SQUARED 0.195, PBLUC_HILL_SLOPE 31.8, PBLUC_R_SQUARED 0.106, read-out: LUCIFERASE INFECTION ASSAY - IC50): 5.01
Cc1ccc(C(=O)Nc2ccccc2Sc2ncc([N+](=O)[O-])s2)cc1	> 8.88	pIC50 (FFLUC_HILL_SLOPE 77.3, FFLUC_R_SQUARED 0.701, read-out: LUCIFERASE INFECTION ASSAY - IC50): < 5.05
O=c1c2c(-c3ccccc3)csc2nc2n1CC/C2=C\c1cccc(C(F)(F)F)c1	> 10	pIC50 (FFLUC_HILL_SLOPE 50.3, FFLUC_R_SQUARED 0.583, read-out: LUCIFERASE INFECTION ASSAY - IC50): < 5.00
CC(=O)Nc1ccc(-c2cnc3ccc(-c4ccc(F)c(Cl)c4)nn23)cc1	3.52	pIC50 (FFLUC_HILL_SLOPE 64.9, FFLUC_R_SQUARED 0.6, HEPG2TOX_HILL_SLOPE 8.77, HEPG2TOX_R_SQUARED 0.612, PBLUC_HILL_SLOPE 16.7, PBLUC_R_SQUARED 0.645, read-out: LUCIFERASE INFECTION ASSAY - IC50): 5.51
C/C(=N\NC(=S)Nc1ccccc1)c1ccn[nH]1	> 12.7	pIC50 (FFLUC_HILL_SLOPE 48.7, FFLUC_R_SQUARED 0.514, PBLUC_HILL_SLOPE 3.68, PBLUC_R_SQUARED 0.194, read-out: LUCIFERASE INFECTION ASSAY - IC50): 5.06
O=C(Cn1ncc(Cl)c(Cl)c1=O)NCC12CC3CC(CC(C3)C1)C2	> 10	pIC50 (FFLUC_HILL_SLOPE 71.8, FFLUC_R_SQUARED 0.575, read-out: LUCIFERASE INFECTION ASSAY - IC50): < 5.00
N#Cc1ccsc1NC(=O)COc1ccc([N+](=O)[O-])cc1Cl	> 10	pIC50 (FFLUC_HILL_SLOPE 45.5, FFLUC_R_SQUARED 0.53, PBLUC_HILL_SLOPE 0.51, PBLUC_R_SQUARED 0.745, read-out: LUCIFERASE INFECTION ASSAY - IC50): 6.35
O=C(Nc1ccc2c(c1)OCO2)C1CCN(C(C(=O)c2c[nH]c3ccccc23)c2ccccc2)CC1 (stereo not given)	> 10	pIC50 (FFLUC_HILL_SLOPE 60.7, FFLUC_R_SQUARED 0.292, PBLUC_HILL_SLOPE 4.02, PBLUC_R_SQUARED 0.0454, read-out: LUCIFERASE INFECTION ASSAY - IC50): 5.11
Cc1ccc(-c2ccccc2C(=O)OCC(=O)Nc2ccc(C)c(Cl)c2)cc1	> 10	pIC50 (FFLUC_HILL_SLOPE 49.8, FFLUC_R_SQUARED 0.336, read-out: LUCIFERASE INFECTION ASSAY - IC50): < 5.00
FC(F)Oc1ccc(-c2n[nH]cc2Sc2ccc(Cl)cc2)cc1	> 9.35	pIC50 (FFLUC_HILL_SLOPE 44.1, FFLUC_R_SQUARED 0.44, PBLUC_HILL_SLOPE 8.27, PBLUC_R_SQUARED 0.292, read-out: LUCIFERASE INFECTION ASSAY - IC50): < 5.03
Cn1c(=O)c(C2=NN(C(=O)c3cccs3)C(c3ccco3)C2)c(-c2ccccc2)c2cc(Cl)ccc21 (stereo not given)	> 10	pIC50 (FFLUC_HILL_SLOPE 47.1, FFLUC_R_SQUARED 0.757, PBLUC_HILL_SLOPE 11.3, PBLUC_R_SQUARED 0.251, read-out: LUCIFERASE INFECTION ASSAY - IC50): 5.03
CC1(CCc2ccccc2)NCC(c2ccc(Cl)cc2Cl)c2c1[nH]c1ccccc21 (stereo not given)	> 10	pIC50 (FFLUC_HILL_SLOPE 44.6, FFLUC_R_SQUARED 0.534, read-out: LUCIFERASE INFECTION ASSAY - IC50): < 5.00
